This passage reports Ki results from patent publication US10988478B1, “Pyrazolo[1,5a]pyrimidine derivatives as IRAK4 modulators” (Genentech, Inc., priority 2015, dated 2021).

pKi: −log10 of the molar value.

The target of this test is human IRAK4 (Homo sapiens (Human), UniProt Q9NWZ3). As to the kind of experiment: IRAK4 kinase inhibition, Transcreener fluorescence polarization ADP assay. In kind it is biochemical. Particulars: recombinant full-length His6-IRAK4; 125 uM ATP; 90 min; Ki computed using ATP Km 642 uM. As to the method: Compounds were assayed for inhibition of human IRAK4 and IRAK1 catalytic activity using recombinant enzyme produced from insect cells. Full-length IRAK4 protein, carrying an N-terminal His6-Tag, was obtained from Life Technologies (Carlsbad, Calif., USA). The IRAK1 construct was produced internally and was comprised of IRAK1 residues Arg194 to Ser712, preceded by an NH2-terminal His6 tag and the coding sequence for glutathione-S-transferase.
human IRAK4, sequence (Q9NWZ3 whole entry, the tested form may be a part): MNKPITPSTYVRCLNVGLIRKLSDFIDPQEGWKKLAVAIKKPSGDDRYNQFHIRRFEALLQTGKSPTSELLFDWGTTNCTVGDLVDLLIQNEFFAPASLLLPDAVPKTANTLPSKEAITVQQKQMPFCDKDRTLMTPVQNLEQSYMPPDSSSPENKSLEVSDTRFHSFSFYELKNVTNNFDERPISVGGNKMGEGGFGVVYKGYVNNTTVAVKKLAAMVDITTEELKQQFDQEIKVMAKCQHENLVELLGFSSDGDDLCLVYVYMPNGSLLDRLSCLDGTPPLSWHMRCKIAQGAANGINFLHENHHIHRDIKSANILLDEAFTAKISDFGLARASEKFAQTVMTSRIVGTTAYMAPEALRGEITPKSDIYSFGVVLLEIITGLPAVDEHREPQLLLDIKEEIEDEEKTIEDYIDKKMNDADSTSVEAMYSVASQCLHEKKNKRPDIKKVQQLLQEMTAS
In general terms: In fluorescence polarisation assays a small probe gives low polarisation when free and higher when bound to something large.
For orientation: pKi means the negative decadic logarithm of the Ki, by convention in mol/L. Regarding `CC(C)(O)CN1Cc2cc(NC(=O)c3cnn4cccnc34)c(N3CCOCC3)cc2C1=O` [Example 176, N-[2-(2-hydroxy-2-methyl-propyl)-6-morpholino-1-oxo-isoindolin-5-yl]pyrazolo[1,5-a]pyrimidine-3-carboxamide], the pKi was 7.29.

With `NC(=O)CN1CCN(c2cc3c(cc2NC(=O)c2cnn4cccnc24)CN(C2CCOCC2)C3=O)CC1` [Example 177, N-[6-[4-(2-amino-2-oxo-ethyl)piperazin-1-yl]-1-oxo-2-tetrahydropyran-4-yl-isoindolin-5-yl]pyrazolo[1,5-a]pyrimidine-3-carboxamide], the pKi was 8.70.

For `COCCN1Cc2cc(NC(=O)c3cnn4cccnc34)c(N3CCOCC3)cc2C1=O` [Example 178, N-[2-(2-methoxyethyl)-6-morpholino-1-oxo-isoindolin-5-yl]pyrazolo[1,5-a]pyrimidine-3-carboxamide], the pKi is 7.82.

Regarding `O=C(Nc1cc2c(cc1N1CCOCC1)C(=O)N(CCO)C2)c1cnn2cccnc12` [Example 179, N-[2-(2-hydroxyethyl)-6-morpholino-1-oxo-isoindolin-5-yl]pyrazolo[1,5-a]pyrimidine-3-carboxamide], the pKi was 7.51.

With `CN1CCC(N2Cc3cc(NC(=O)c4cnn5cccnc45)c(N4CCOCC4)cc3C2=O)CC1` [Example 180, N-[2-(1-methyl-4-piperidyl)-6-morpholino-1-oxo-isoindolin-5-yl]pyrazolo[1,5-a]pyrimidine-3-carboxamide], the negative-log Ki (pKi) is 8.42.

Consider `O=C(Nc1cc2c(cc1N1CCOCC1)C(=O)N([C@H]1CC[C@H](O)CC1)C2)c1cnn2cccnc12` [Example 181, N-[2-(4-hydroxycyclohexyl)-6-morpholino-1-oxo-isoindolin-5-yl]pyrazolo[1,5-a]pyrimidine-3-carboxamide], for which the pKi is 8.70.

Regarding `CNC(=O)[C@H]1[C@@H]2CN(c3cc4c(cc3NC(=O)c3cnn5cccnc35)CC(C)(C)O4)C[C@@H]21` [Example 182, N-[2,2-dimethyl-6-[(1S,5R)-6-(methylcarbamoyl)-3-azabicyclo[3.1.0]hexan-3-yl]-3H-benzofuran-5-yl]pyrazolo[1,5-a]pyrimidine-3-carboxamide], the pKi is 7.25.

In the case of `CNC(=O)CC1CCN(c2cc3c(cc2NC(=O)c2cnn4cccnc24)CC(C)(C)O3)CC1` [Example 183, N-[2,2-dimethyl-6-[4-[2-(methylamino)-2-oxo-ethyl]-1-piperidyl]-3H-benzofuran-5-yl]pyrazolo[1,5-a]pyrimidine-3-carboxamide], the pKi was 8.29.

Regarding `CC1(C)Cc2cc(NC(=O)c3cnn4cccnc34)c(N3CCC(C)(C(N)=O)CC3)cc2O1` [Example 184, N-[6-(4-carbamoyl-4-methyl-1-piperidyl)-2,2-dimethyl-3H-benzofuran-5-yl]pyrazolo[1,5-a]pyrimidine-3-carboxamide], the negative-log Ki (pKi) was 8.51.

As to `CC1(C)Cc2cc(NC(=O)c3cnn4cccnc34)c(N3CCCC(O)CC3)cc2O1` (stereo not drawn) [Example 185, N-[6-(4-hydroxyazepan-1-yl)-2,2-dimethyl-3H-benzofuran-5-yl]pyrazolo[1,5-a]pyrimidine-3-carboxamide], the pKi is 8.24.

Turning to `CC1(C)Cc2cc(NC(=O)c3cnn4cccnc34)c(N3C[C@@H]4[C@H](C3)[C@H]4C(N)=O)cc2O1` [Example 186, N-[6-[(1S,5R)-6-carbamoyl-3-azabicyclo[3.1.0]hexan-3-yl]-2,2-dimethyl-3H-benzofuran-5-yl]pyrazolo[1,5-a]pyrimidine-3-carboxamide], the pKi is 7.82.

`CC1(C)Cc2cc(NC(=O)c3cnn4cccnc34)c(N3CCN(CC(N)=O)CC3)cc2O1` [Example 187, N-[6-[4-(2-amino-2-oxo-ethyl)piperazin-1-yl]-2,2-dimethyl-3H-benzofuran-5-yl]pyrazolo[1,5-a]pyrimidine-3-carboxamide]: the pKi was 8.70.

Regarding `Cn1cncc1C1CCN(c2cc3c(cc2NC(=O)c2cnn4cccnc24)CC(C)(C)O3)C1` (stereo not drawn) [Example 188, N-[2,2-dimethyl-6-[3-(3-methylimidazol-4-yl)pyrrolidin-1-yl]-3H-benzofuran-5-yl]pyrazolo[1,5-a]pyrimidine-3-carboxamide], the pKi was 7.08.

As to `CC1(C)Cc2cc(NC(=O)c3cnn4cccnc34)c(N3Cc4cccnc4C3)cc2O1` [Example 189, N-[6-(5,7-dihydropyrrolo[3,4-b]pyridin-6-yl)-2,2-dimethyl-3H-benzofuran-5-yl]pyrazolo[1,5-a]pyrimidine-3-carboxamide], the pKi is 8.26.

`CC1(C)Cc2cc(NC(=O)c3cnn4cccnc34)c(N3CCCC(c4ccn[nH]4)C3)cc2O1` (stereo not drawn) [Example 190, N-[2,2-dimethyl-6-[3-(1H-pyrazol-5-yl)-1-piperidyl]-3H-benzofuran-5-yl]pyrazolo[1,5-a]pyrimidine-3-carboxamide]: the pKi is 6.20.

Take `CC1(C)Cc2cc(NC(=O)c3cnn4cccnc34)c(N3CC4COCC4C3)cc2O1` (stereo not drawn) [Example 191, N-[6-(1,3,3a,4,6,6a-hexahydrofuro[3,4-c]pyrrol-5-yl)-2,2-dimethyl-3H-benzofuran-5-yl]pyrazolo[1,5-a]pyrimidine-3-carboxamide]: the pKi was 7.57.

With `CC1(C)Cc2cc(NC(=O)c3cnn4cccnc34)c(N3CCC(c4cc[nH]n4)C3)cc2O1` (stereo not drawn) [Example 192, N-[2,2-dimethyl-6-[3-(1H-pyrazol-3-yl)pyrrolidin-1-yl]-3H-benzofuran-5-yl]pyrazolo[1,5-a]pyrimidine-3-carboxamide], the pKi is 7.36.

For the compound `CC1(C)Cc2cc(NC(=O)c3cnn4cccnc34)c(N3CC4CC3CC4(F)F)cc2O1` (stereo not drawn) [Example 193, N-[6-(5,5-difluoro-2-azabicyclo[2.2.1]heptan-2-yl)-2,2-dimethyl-3H-benzofuran-5-yl]pyrazolo[1,5-a]pyrimidine-3-carboxamide], the pKi is 7.00.

In the case of `CC1(C)Cc2cc(NC(=O)c3cnn4cccnc34)c(N3CC4(CCCOC4)C3)cc2O1` [Example 194, N-[2,2-dimethyl-6-(6-oxa-2-azaspiro[3.5]nonan-2-yl)-3H-benzofuran-5-yl]pyrazolo[1,5-a]pyrimidine-3-carboxamide], the pKi was 6.39.

Take `CC1(C)Cc2cc(NC(=O)c3cnn4cccnc34)c(N3CCC(C(F)(F)F)C3)cc2O1` (stereo not drawn) [Example 195, N-[2,2-dimethyl-6-[3-(trifluoromethyl)pyrrolidin-1-yl]-3H-benzofuran-5-yl]pyrazolo[1,5-a]pyrimidine-3-carboxamide]: the pKi was 7.70.

As to `CC1(C)Cc2cc(NC(=O)c3cnn4cccnc34)c(N3CCCC(F)(F)C3)cc2O1` [Example 196, N-(6-(3,3-difluoropiperidin-1-yl)-2,2-dimethyl-2,3-dihydrobenzofuran-5-yl)pyrazolo[1,5-a]pyrimidine-3-carboxamide], the pKi is 7.89.

Take `CC1(C)Cc2cc(NC(=O)c3cnn4cccnc34)c(N3C[C@@H]4CC(F)(F)C[C@@H]4C3)cc2O1` [Example 197, N-(6-((3aR,6aS)-5,5-difluorohexahydrocyclopenta[c]pyrrol-2(1H)-yl)-2,2-dimethyl-2,3-dihydrobenzofuran-5-yl)pyrazolo[1,5-a]pyrimidine-3-carboxamide]: the pKi is 7.48.

In the case of `COCC1CN(c2cc3c(cc2NC(=O)c2cnn4cccnc24)CC(C)(C)O3)CCO1` (stereo not drawn) [Example 198, N-(6-(2-(methoxymethyl)morpholino)-2,2-dimethyl-2,3-dihydrobenzofuran-5-yl)pyrazolo[1,5-a]pyrimidine-3-carboxamide], the pKi was 6.85.

For `CC1(C)Cc2cc(NC(=O)c3cnn4cccnc34)c(N3CC4CC(F)(F)C4C3)cc2O1` (stereo not drawn) [Example 199, N-(6-(6,6-difluoro-3-azabicyclo[3.2.0]heptan-3-yl)-2,2-dimethyl-2,3-dihydrobenzofuran-5-yl)pyrazolo[1,5-a]pyrimidine-3-carboxamide], the pKi was 6.77.

Turning to `CC1(C)Cc2cc(NC(=O)c3cnn4cccnc34)c(N3C[C@H]4CCC(F)(F)[C@H]4C3)cc2O1` [Example 200, N-(6-((3aR,6aS)-4,4-difluorohexahydrocyclopenta[c]pyrrol-2(1H)-yl)-2,2-dimethyl-2,3-dihydrobenzofuran-5-yl)pyrazolo[1,5-a]pyrimidine-3-carboxamide], the pKi was 7.66.

For the compound `CC1(C)Cc2cc(NC(=O)c3cnn4cccnc34)c(N3CCCC3CO)cc2O1` (stereo not drawn) [Example 201, N-(6-(2-(hydroxymethyl)pyrrolidin-1-yl)-2,2-dimethyl-2,3-dihydrobenzofuran-5-yl)pyrazolo[1,5-a]pyrimidine-3-carboxamide], the pKi is 7.55.

For the compound `CC1(C)Cc2cc(NC(=O)c3cnn4cccnc34)c(N3CCCC(c4ncc[nH]4)C3)cc2O1` (stereo not drawn) [Example 202, N-(6-(3-(1H-imidazol-2-yl)piperidin-1-yl)-2,2-dimethyl-2,3-dihydrobenzofuran-5-yl)pyrazolo[1,5-a]pyrimidine-3-carboxamide], the negative-log Ki (pKi) is 6.16.

As to `CC1(C)Cc2cc(NC(=O)c3cnn4cccnc34)c(N3C[C@@H](F)[C@@H](F)C3)cc2O1` [Example 203, N-(6-((3R,4S)-3,4-difluoropyrrolidin-1-yl)-2,2-dimethyl-2,3-dihydrobenzofuran-5-yl)pyrazolo[1,5-a]pyrimidine-3-carboxamide], the pKi is 7.82.

Consider `CC1(C)Cc2cc(NC(=O)c3cnn4cccnc34)c(N3CC4(CCC4(F)F)C3)cc2O1` [Example 204, N-(6-(5,5-difluoro-2-azaspiro[3.3]heptan-2-yl)-2,2-dimethyl-2,3-dihydrobenzofuran-5-yl)pyrazolo[1,5-a]pyrimidine-3-carboxamide], for which the pKi was 6.14.

Regarding `CN(Cc1ccc(C#N)cc1)c1cc2c(cc1NC(=O)c1cnn3cccnc13)CC(C)(C)O2` [Example 205, N-(6-((4-cyanobenzyl)(methyl)amino)-2,2-dimethyl-2,3-dihydrobenzofuran-5-yl)pyrazolo[1,5-a]pyrimidine-3-carboxamide], the pKi was 7.07.
